Experimental data: patent US20140275078A1, “COMPOSITIONS AND METHODS FOR TREATING CANCER USING PI3KB INHIBITOR AND MAPK PATHWAY INHIBITOR, INCLUDING MEK AND RAF INHIBITORS” (SANOFI, priority 2011, published 2014)
Several values for one entry are separate records, joined by “and”; a condition that tells them apart may be missing. Equal values may be shown once. Read-outs that look alike come from different tables or passages of the source.

How the values were obtained:
[1] = test system: human melanoma cell line UACC-62; experiment: Cell proliferation (CelltiterGlo, ray design) in UACC-62; assay type: cell-based; details: single agent, 96 hours, 4-parameter logistic model
Procedure: The human melanoma UACC-62 cell line was purchased at NCI (Batch 0503000). The UACC-62 cells were cultured in RPMI1640 medium supplemented with 10% FBS and 2 mM L-Glutamine.
They were diluted in cascade, in DMSO and then diluted 50-fold in culture medium containing 10% serum before being added onto cells with a 20-fold dilution factor. The final concentrations tested were defined by Ray design described in Table 1. The DMSO concentration was 0.1% in controls and in all treated wells.
(§1) UACC-62 cells were plated at 2500 cells/well in 96-well plates in appropriate culture medium and incubated 6 hours at 37° C., 5% CO2. […] Cell growth was evaluated by measuring intracellular ATP using CelltiterGlo® reagent (Promega) according to the manufacturer's protocol. Briefly, Cell Titer Glo was added to each plate, incubated for 1 hour then luminescent signal was read on the MicroBeta Luminescent plate reader. All plates were run in duplicate. All assays were run at least in duplicate.
(§2) Inhibition of cell growth was estimated after treatment with compound or combination of compounds for four days and comparing the signal to cells treated with vehicle (DMSO).
Growth inhibition percentage (GI %) was calculated according to the following equation: GI %=100*(1−((X−BG)/(TC−BG)) […]

[2] = test system: human melanoma tumors UACC-62; experiment: Antitumor activity against subcutaneous UACC-62 tumors in SCID female mice; details: for tolerability (body weight loss): single agents or combination
[3] = test system: human primary colon tumors CR-IGR-014P; details: Ex. 8, Cpd (I) 150 mg/kg bid
[4] = Chemical stability of dosing stock solution; details: oral dosing formulation of each compound; in the dark at RT
[5] = test system: human melanoma tumors WM-266.4; details: for tolerability (body weight loss): Cpd (2a) 25 and 10 mg/kg qd, Cpd (2b) 100 and 50 mg/kg qd, single agents or combination
[6] = test system: human melanoma cell line WM-266-4; experiment: Cell proliferation (CelltiterGlo, ray design) in WM-266-4; assay type: cell-based; details: single agent, 96 hours, 4-parameter logistic model
Procedure: as §1, §2
Growth inhibition percentage (GI %) was calculated according to the following equation: GI %=100*(1−((X−BG)/(TC−BG))
A global non linear mixed model using NLMIXED procedure of SAS V9.2 was applied to fit simultaneously the concentration-responses curves for each ray. The combination index
of each ray i and its 95% confidence interval was then estimated using the following equation: […]
where IC40A and IC40B are the concentrations of compound A and compound B necessary to obtain 40% of inhibition for each compound alone and CA and CB are the concentrations of compound A and compound B in the mixture necessary to obtain 40% of inhibition.
The human melanoma WM-266-4 cell line was purchased at ATCC (Ref number CRL-1676 Batch 3272826). The WM-266-4 cells were cultured in RPMI1640 medium supplemented with 10% FBS and 2 mM L-Glutamine.
Materials and Methods are the same described in example 1.
The human melanoma WM-266-4 cell line was purchased at ATCC (Ref number CRL-1676 Batch 3272826). The WM-266.4 cells were cultured in RPMI1640 medium supplemented with 10% FBS and 2 mM L-Glutamine.

[7] = Ex. 5, PO d11-22, Cpd (I) 150 mg/kg bid, Cpd (2a) 10 mg/kg qd, alone or combined
[8] = PO d20-36, Cpd (2a) 10 mg/kg qd, alone or combined
[9] = Ex. 7, PO d21-31, Cpd (I) 150 mg/kg bid, Cpd (2a) 10 mg/kg qd, alone or combined

## Cn1cnc2c(F)c(Nc3ccc(Br)cc3Cl)c(C(=O)NOCCO)cc21 [Compound (2a), 1H-Benzimidazole-6-carboxamide, 5-[(4-bromo-2-chlorophenyl)amino]-4-fluoro-N-(2-hydroxyethoxy)-1-methyl]
[1]; example 1
  Absolute IC40: 27 nM
[2]; Ex. 5, Cpd (I) 150 mg/kg bid, Cpd (2a) 25 and 10 mg/kg qd
  tolerability (body weight loss): well tolerated inducing minimal bwl
[2]; [7]
  Average body weight change in % per mouse at nadir: −4.3%
  Drug death (Day of death): 0/7
  day of nadir: 21 days
  ΔT/ΔC % (day 22): 35%
[3]; Cpd (2a) 25 and 10 mg/kg qd, single agents or combination
  tolerability (body weight loss): well tolerated inducing minimal bwl
[3]; [8]
  Average body weight change in % per mouse at nadir: −4.2%
  Drug death (Day of death): 0/7
  day of nadir: 27 days
  ΔT/ΔC % (day 36): 84%
[4]
  stock solution chemically stable: 7 days
[5]; Ex. 7, Cpd (I) 150 mg/kg bid
  tolerability (body weight loss): induced a higher bwl as compared to the control
[5]; [9]
  Average body weight change in % per mouse at nadir: −10.5%
  Drug death (Day of death): 0/7
  day of nadir: 31 days
  ΔT/ΔC % (day 31): 36%
[6]; example 3
  Absolute IC40: 33 nM

## CCCS(=O)(=O)Nc1ccc(F)c(C(=O)c2c[nH]c3ncc(-c4ccc(Cl)cc4)cc23)c1F [Compound (2b), 1-Propanesulfonamide, N-[3-[[5-(4-chlorophenyl)-1H-pyrrolo[2,3-b]pyridin-3-yl]carbonyl]-2,4-difluorophenyl]]
[1]; example 2
  Absolute IC40: 18 nM and 17.7 nM
[2]; Ex. 6, Cpd (I) 151.5 mg/kg bid, Cpd (2b) 50 mg/kg qd, alone or combined, Day 11
  Tumor volume changes from baseline: Median (nMad): 62 (16.3)
[2]; Ex. 6, Cpd (I) 151.5 mg/kg bid, Cpd (2b) 50 mg/kg qd, alone or combined, Day 13
  Tumor volume changes from baseline: Median (nMad): 157 (132)
[2]; Ex. 6, Cpd (I) 151.5 mg/kg bid, Cpd (2b) 50 mg/kg qd, alone or combined, Day 15
  Tumor volume changes from baseline: Median (nMad): 240 (132)^
[2]; Ex. 6, Cpd (I) 151.5 mg/kg bid, Cpd (2b) 50 mg/kg qd, alone or combined, Global
  Tumor volume changes from baseline: Median (nMad): 154 (136.4)
[2]; Ex. 6, Cpd (I) 151.5 mg/kg bid, Cpd (2b) 100 mg/kg qd, alone or combined, Day 11
  Tumor volume changes from baseline: Median (nMad): 54 (60.8)
[2]; Ex. 6, Cpd (I) 151.5 mg/kg bid, Cpd (2b) 100 mg/kg qd, alone or combined, Day 13
  Tumor volume changes from baseline: Median (nMad): 126 (74.1)
[2]; Ex. 6, Cpd (I) 151.5 mg/kg bid, Cpd (2b) 100 mg/kg qd, alone or combined, Day 15
  Tumor volume changes from baseline: Median (nMad): 152 (161.6)
[2]; Ex. 6, Cpd (I) 151.5 mg/kg bid, Cpd (2b) 100 mg/kg qd, alone or combined, Global
  Tumor volume changes from baseline: Median (nMad): 98 (89)^
[2]; Ex. 6, Cpd (I) 151.5 mg/kg bid, Cpd (2b) 100 and 50 mg/kg qd
  tolerability (body weight loss): well tolerated inducing minimal bwl
[2]; Ex. 6, PO d8-15, Cpd (I) 151.5 mg/kg bid, Cpd (2b) 100 mg/kg qd, alone or combined
  ΔT/ΔC % (day 15): 20%
[2]; mouse, in vivo
  Average body weight change in % per mouse at nadir: −3.7 (13) % and −1.7 (15) %
[4]
  stock solution chemically stable: 7 days
[5]; Ex. 7, Cpd (I) 150 mg/kg bid
  tolerability (body weight loss): well tolerated
[5]; Ex. 7, Cpd (I) 150 mg/kg bid, Cpd (2b) 50 mg/kg qd, alone or combined, Day 24
  Tumor volume changes from baseline: Median (nMad): 116 (11.9)
[5]; Ex. 7, Cpd (I) 150 mg/kg bid, Cpd (2b) 50 mg/kg qd, alone or combined, Day 27
  Tumor volume changes from baseline: Median (nMad): 254 (118.6)
[5]; Ex. 7, Cpd (I) 150 mg/kg bid, Cpd (2b) 50 mg/kg qd, alone or combined, Day 29
  Tumor volume changes from baseline: Median (nMad): 322 (94.9)
[5]; Ex. 7, Cpd (I) 150 mg/kg bid, Cpd (2b) 50 mg/kg qd, alone or combined, Day 31
  Tumor volume changes from baseline: Median (nMad): 442 (60.8)
[5]; Ex. 7, Cpd (I) 150 mg/kg bid, Cpd (2b) 50 mg/kg qd, alone or combined, Global
  Tumor volume changes from baseline: Median (nMad): 274 (228.3)
[5]; Ex. 7, Cpd (I) 150 mg/kg bid, Cpd (2b) 100 mg/kg qd, alone or combined, Day 24
  Tumor volume changes from baseline: Median (nMad): 36 (26.7)
[5]; Ex. 7, Cpd (I) 150 mg/kg bid, Cpd (2b) 100 mg/kg qd, alone or combined, Day 27
  Tumor volume changes from baseline: Median (nMad): 171 (40)^
[5]; Ex. 7, Cpd (I) 150 mg/kg bid, Cpd (2b) 100 mg/kg qd, alone or combined, Day 29
  Tumor volume changes from baseline: Median (nMad): 226 (86)^
[5]; Ex. 7, Cpd (I) 150 mg/kg bid, Cpd (2b) 100 mg/kg qd, alone or combined, Day 31
  Tumor volume changes from baseline: Median (nMad): 441 (96.4)
[5]; Ex. 7, Cpd (I) 150 mg/kg bid, Cpd (2b) 100 mg/kg qd, alone or combined, Global
  Tumor volume changes from baseline: Median (nMad): 193.5 (200.2)^
[5]; Ex. 7, PO d21-31, Cpd (I) 150 mg/kg bid, Cpd (2b) 50 mg/kg qd, alone or combined
  ΔT/ΔC % (day 31): > 40%
[5]; Ex. 7, PO d21-31, Cpd (I) 150 mg/kg bid, Cpd (2b) 50 mg/kg qd, alone or combined, listed as Cpd. 2b
  ΔT/ΔC % (day 31): 59%
[5]; Ex. 7, PO d21-31, Cpd (I) 150 mg/kg bid, Cpd (2b) 100 mg/kg qd, alone or combined
  ΔT/ΔC % (day 31): > 40%
[5]; Ex. 7, PO d21-31, Cpd (I) 150 mg/kg bid, Cpd (2b) 100 mg/kg qd, alone or combined, listed as Cpd. 2b
  ΔT/ΔC % (day 31): 59%
[5]; mouse, in vivo
  Average body weight change in % per mouse at nadir: −6.6 (31) %
[6]; example 4
  Absolute IC40: 35 nM
